# Data as given in US10595532B2, “Ophthalmic contact lens solutions containing forms of vitamin B” (FXS Ventures, LLC, priority 2000, dated 2020).
# Structures can show the parent of a compound that is named as a salt.
# What was measured:
# Assay type in all cases: cell-based
# E. coli [1] = test: in vitro anti-microbial activity of vitamin B solutions in 0.5% Tris buffer with PHMB (Example 3); conditions: for effect on the preservative (PHMB): 0.5% vitamin B, 1 ppm PHMB, E. coli 1 hour; for Log Reduction at 1 hr: E. coli, room temperature, 0.5% Tris, 0.6% sodium chloride, pH 7.2, 1 ppm PHMB, vitamin B 0.5% or none
# Method: (§1) Formulations containing Dexpanthanol (Spectrum), Pyridoxine HCl (Spectrum) Thiamine HCl (Spectrum), and no Vitamin B control were prepared in a 0.5% Tris buffer containing 0.6% sodium chloride. The pH was adjusted with 1 N HCl to a final pH of 7.2. Polyhexamethylene biquanide (PHMB) at 0.0001% was added to each formulation. The in vitro anti-microbial activity of the solutions was determined by exposing E. coli to 10 ml of each solution at room temperature for 1 hours. Subsequently, an aliquot of each solution was serial diluted onto agar plates and incubated for 48 hours at elevated temperatures. At the conclusion of the incubation period the plates are examined for the development of colonies. The log reduction was determined based on a comparison to the inoculum control.
# C. albicans [2] = test: in vitro microbicidal activity of dexpanthenol solutions in 0.25% Bis-Tris Propane buffer preserved with PHMB (Example 2); conditions: PHMB 0.5 ppm; for Log Reduction Calibicans 4 hour: C. albicans, room temperature, Bis-Tris Propane 0.25%, Cremophor 0.20%, Inositol 3.0%, Allantoin 0.1%, pH 7.2, dexpanthenol 0.1% or none
# Method: (§2) Formulations containing dexpanthenol were prepared in a 0.25% Bis-Tris Propane buffer. The solutions were made isotonic with sodium chloride and preserved with polyhexamethylene biquanide at 0.00005%. The pH was adjusted to 7.2 with either 1 N sodium hydroxide or 1 N hydrochloric acid. The in vitro microbicidal activity of the solutions was determined by exposing C. albicans to 10 ml of each solution at room temperature for 4 hours. Subsequently, an aliquot of each solution was serial diluted onto agar plates and incubated for 48 hours at elevated temperatures. At the conclusion of the incubation period the plates are examined for the development of colonies. The log reduction was determined based on a comparison to the inoculum control. The following table provides the results of the in vitro studies.
# E. coli [3] = test: in vitro anti-microbial activity of vitamin B solutions in 0.5% Tris buffer with benzalkonium chloride (Example 4); conditions: for effect on the preservative (BAK): 0.5% vitamin B, 25 PPM BAK, E. coli 1 hour; for Log Reduction at 1 hr: E. coli, 0.5% Tris
# Method: as §1, with “Polyhexamethylene biquanide (PHMB) at 0.0001% was added to each formulation.” left out, “hour.” for “hours.”, “control. The following table provides the results of the in vitro studies.” for “control.”
# C. albicans [4] = test: in vitro microbicidal activity of vitamin B solutions in 0.2% phosphate buffer preserved with PHMB (Example 1); conditions: PHMB 0.0001%; for activity against C. albicans as compared to the buffer control: 0.5% additive, 4 hours; for 4 Hour Log Reduction: C. albicans, room temperature, additive 0.5% in 0.2% phosphate buffer, isotonic, pH 7.2, vs inoculum control
# Method: as §2, with “Pyridoxine HCl (Spectrum) and Thiamine HCl (Fisher)” for “dexpanthenol”, “0.2% phosphate” for “0.25% Bis-Tris Propane”, “biguanide” for “biquanide”, “0.0001%.” for “0.00005%.”, “control.” for “control. The following table provides the results of the in vitro studies.”
# [5] = room temperature, 0.6% sodium chloride, pH 7.2, 25 PPM BAK, vitamin B 0.5%
Molecule,effect on the preservative (PHMB) (E. coli [1]),Log Reduction at 1 hr (E. coli [1]),Log Reduction Calibicans 4 hour (C. albicans [2]),"preservative efficacy over a solution with a preservative alone (C. albicans [2]; dexpanthenol 0.1%, C. albicans 4 hours)",effect on the preservative (BAK) (E. coli [3]),Log Reduction at 1 hr (E. coli [3]; [5]),activity against C. albicans as compared to the buffer control (C. albicans [4]),4 Hour Log Reduction (C. albicans [4]),"Log Reduction at 1 hr (E. coli [3]; no vitamin B, row printed with 1 ppm PHMB)"
"CC(C)(CO)[C@@H](O)C(=O)NCCCO [Dexpanthenol, dexpanthenol]",enhancement of the preservative,4.82,4.9,improved preservative efficacy,enhancement of the preservative,>5.12,,,
Cc1ncc(CO)c(CO)c1O.Cl [Pyridoxine HCl],enhancement of the preservative,4.34,,,enhancement of the preservative,>5.12,improvement in the activity,2.0,
Cc1ncc(C[n+]2csc(CCO)c2C)c(N)n1 [Thiamine HCl],enhancement of the preservative,5.12,,,,3.30,improvement in the activity,1.0,
polyhexamethylene biguanide [PHMB],,0.42,3.8,,,,,,0.42
